Data set [1] addresses T1, rat mGlu 1a receptor (Rattus norvegicus, UniProt P23385).
T1 construct: expressed in transfected cells; host or cells: EBNA cells (transient transfection)
In words: [Ca2+]i measurements (FLIPR, Fluo-3 AM) on mGlu 1a transfected EBNA cells. It is filed as cell-based. To be noted: rat mGlu 1a receptor transiently transfected into EBNA cells, agonist activity. Here is the method: The pharmacological activity of the compounds was tested using the following method: cDNA encoding rat mGlu 1a receptor was transiently transfected into EBNA cells using a procedure described by E.-J. Schlaeger and K. Christensen (Transient gene expression in mammalian cells grown in serum-free suspension culture; Cytotechnology, 15: 1–13, 1998). [Ca^2+]i measurements were performed on mGlu 1a transfected EBNA cells after incubation of the cells with Fluo-3 AM (0.5 μM final concentration) for 1 hour at 37° C. followed by 4 washes with assay buffer (DMEM supplemented with Hank's salt and 20 mM HEPES. [Ca^2+]i measurements were done using a fluorometric imaging plate reader (FLIPR, Molecular Devices Corporation, La Jolla, Calif., USA). When compounds were evaluated as antagonists they were tested against 10 μM glutamate as agonist.
The inhibition (antagonists) or activation (agonists) curves were fitted with a four parameter logistic equation giving EC50, IC50, and Hill coefficient using the iterative non linear curve fitting software Origin (Microcal Software Inc., Northampton, Mass., USA).

Structures are written as SMILES.

T1 sequence (P23385 19-1199): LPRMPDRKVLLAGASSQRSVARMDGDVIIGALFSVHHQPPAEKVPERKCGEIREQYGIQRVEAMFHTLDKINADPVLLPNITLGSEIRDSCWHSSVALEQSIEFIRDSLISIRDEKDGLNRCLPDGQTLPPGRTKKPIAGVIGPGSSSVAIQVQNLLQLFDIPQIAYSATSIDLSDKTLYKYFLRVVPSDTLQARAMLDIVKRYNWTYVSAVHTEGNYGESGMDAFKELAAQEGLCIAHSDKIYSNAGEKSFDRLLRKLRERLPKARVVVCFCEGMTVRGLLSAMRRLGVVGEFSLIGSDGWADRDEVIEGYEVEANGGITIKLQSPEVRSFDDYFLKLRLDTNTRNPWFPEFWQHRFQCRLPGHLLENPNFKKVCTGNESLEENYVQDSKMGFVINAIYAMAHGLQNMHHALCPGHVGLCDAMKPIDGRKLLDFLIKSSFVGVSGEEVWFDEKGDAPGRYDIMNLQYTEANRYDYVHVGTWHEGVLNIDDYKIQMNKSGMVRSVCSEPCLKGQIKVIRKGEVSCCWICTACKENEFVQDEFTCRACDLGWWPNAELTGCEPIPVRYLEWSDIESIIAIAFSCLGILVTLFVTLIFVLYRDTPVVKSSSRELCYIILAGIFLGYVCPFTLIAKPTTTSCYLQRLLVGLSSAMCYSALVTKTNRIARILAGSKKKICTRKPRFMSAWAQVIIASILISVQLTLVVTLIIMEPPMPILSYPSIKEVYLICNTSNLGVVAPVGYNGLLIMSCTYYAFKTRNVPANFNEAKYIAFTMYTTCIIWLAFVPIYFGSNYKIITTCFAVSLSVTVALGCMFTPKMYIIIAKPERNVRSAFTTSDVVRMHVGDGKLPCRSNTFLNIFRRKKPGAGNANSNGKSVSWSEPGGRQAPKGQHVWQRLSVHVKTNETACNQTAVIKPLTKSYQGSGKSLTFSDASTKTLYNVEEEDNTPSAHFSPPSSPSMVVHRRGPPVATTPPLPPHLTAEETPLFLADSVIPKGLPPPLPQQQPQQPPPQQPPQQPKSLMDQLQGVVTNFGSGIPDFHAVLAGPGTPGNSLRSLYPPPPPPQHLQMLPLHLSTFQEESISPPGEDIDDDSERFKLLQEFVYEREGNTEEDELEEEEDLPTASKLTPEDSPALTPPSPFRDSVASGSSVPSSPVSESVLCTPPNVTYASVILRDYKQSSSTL

The molecule `Cc1ccc(S(=O)(=O)N2[C@H](CCCNS(C)(=O)=O)CC[C@@H]2c2ccc(F)cc2)cc1` (racemic) [Example 77, (2RS,5RS)-N-{3-[5-(4-Fluoro-phenyl)-1-(toluene-4-sulfonyl)-pyrrolidin-2-yl]-propyl}-methanesulfonamide] yielded a melting point of 123 °C. In data set [1], this molecule returned an EC50 of 160 nM. In turn, `Cc1ccc(S(=O)(=O)N2[C@@H](CCn3ncnn3)CC[C@H]2c2ccc(F)cc2)cc1` (racemic) [Example 101, (2RS,5SR)-2-{2-[5-(4-Fluoro-phenyl)-1-(toluene-4-sulfonyl)-pyrrolidin-2-yl]-ethyl}-2H-tetrazole] registered a 50% effective concentration (EC50) in data set [1] of 1470 nM. `Cc1ccc(S(=O)(=O)N2CCCC2CCCNC(=O)C2CC2)cc1` (racemic) [Example 87, (RS)-Cyclopropanecarboxylic acid {3-[1-(toluene-4-sulfonyl)-pyrrolidin-2-yl]-propyl}-amide] yielded an EC50 in data set [1] of 980 nM. Same read-out and setting: the figure for `Cc1ccc(S(=O)(=O)N2[C@@H](c3nnco3)CC[C@H]2c2ccc(F)cc2)cc1` (racemic) [Example 137, (2RS,5SR)-2-[5-(4-Fluoro-phenyl)-1-(toluene-4-sulfonyl)-pyrrolidin-2-yl]-[1,3,4]oxadiazole] is 1240 nM; for `Cc1ccc(S(=O)(=O)N2C(CCCO)CC[C@H]2c2ccc(F)cc2)cc1` (stereo in doubt) [Example 64, (2S,5S)-3-[5-(4-Fluoro-phenyl)-1-(toluene-4-sulfonyl)-pyrrolidin-2-yl]-propan-1-ol] it is 200 nM; for `Cc1ccc(S(=O)(=O)N2[C@@H](Cc3noc(C)n3)CC[C@H]2c2ccc(F)cc2)cc1` (racemic) [Example 21, (2RS,5SR)-3-[5-(4-Fluoro-phenyl)-1-(toluene-4-sulfonyl)-pyrrolidin-2-yl-methyl]-5-methyl-[1,2,4]oxadiazole] it is 630 nM. `Cc1ccc(S(=O)(=O)N2[C@@H](Cc3nnn(C)n3)CC[C@H]2c2ccc(F)cc2)cc1` (racemic) [Example 39, (2RS,5SR)-5-[5-(4-Fluoro-phenyl)-1-(toluene-4-sulfonyl)-pyrrolidin-2-yl-methyl]-2-methyl-2H-tetrazole] displayed an EC50 in data set [1] of 360 nM. `Cc1ccc(S(=O)(=O)N2[C@@H](CNC(=O)C3CC3)CC[C@H]2c2ccc(F)cc2)cc1` (racemic) [Example 16, (2RS,5SR)-Cyclopropanecarboxylic acid [5-(4-fluoro-phenyl)-1-(toluene-4-sulfonyl)-pyrrolidin-2-yl-methyl]-amide]: the melting point is 154 °C. In data set [1], this molecule registered an EC50 of 210 nM. Molecule `Cc1ccc(S(=O)(=O)N2[C@@H](CCCn3ccnc3)CC[C@H]2c2ccc(F)cc2)cc1` [Example 116, (2S,5S)-1-{3-[5-(4-Fluoro-phenyl)-1-(toluene-4-sulfonyl)-pyrrolidin-2-yl]-propyl}-1H-imidazole] came in with an EC50 in data set [1] of 220 nM. Molecule `Cc1ccc(S(=O)(=O)N2[C@@H](CCl)CC[C@H]2c2ccc(F)cc2)cc1` (racemic) [Example 5, (2RS,5SR)-2-Chloromethyl-5-(4-fluoro-phenyl)-1-(toluene-4-sulfonyl)-pyrrolidine] returned a melting point of 130 °C. In data set [1], this molecule displayed an EC50 of 1400 nM.

As to `Cc1ccc(S(=O)(=O)N2[C@@H](C#N)CC[C@H]2c2ccc(F)cc2)cc1` (racemic) [Example 4, (2RS,5SR)-5-(4-Fluoro-phenyl)-1-(toluene-4-sulfonyl)-pyrrolidine-2-carbonitrile], the melting point worked out at 128 °C. In data set [1], the concentration giving a half-maximal response (EC50) is 4400 nM.

In data set [1], `Cc1ccc(S(=O)(=O)N2[C@H](CCCc3nc(C)cc(C)n3)CC[C@@H]2c2ccc(F)cc2)cc1` (racemic) [Example 123, (2RS,5RS)-2-{3-[5-(4-Fluoro-phenyl)-1-(toluene-4-sulfonyl)-pyrrolidin-2-yl]-propyl}-4,6-dimethyl-pyrimidine] displayed an EC50 of 1280 nM. Take `Cc1ccc(S(=O)(=O)N2[C@H](CCCCn3ncnn3)CC[C@@H]2c2ccc(F)cc2)cc1` (racemic) [Example 143, (2RS,5RS)-2-{4-[5-(4-Fluoro-phenyl)-1-(toluene-4-sulfonyl)-pyrrolidin-2-yl]-butyl}-2H-tetrazole]: it took 350 nM to reach a half-maximal effect in data set [1] (EC50).

Molecule `Cc1ccc(S(=O)(=O)N2[C@H](CCCC#N)CC[C@@H]2c2ccc(F)cc2)cc1` (racemic) [Example 45, (2RS,5RS)-4-[5-(4-Fluoro-phenyl)-1-(toluene-4-sulfonyl)-pyrrolidin-2-yl]-butyronitrile] returned a melting point of 74 °C. As to `Cc1ccc(S(=O)(=O)N2[C@@H](CCn3cccn3)CC[C@H]2c2ccc(F)cc2)cc1` (racemic) [Example 100, (2RS,5SR)-1-{2-[5-(4-Fluoro-phenyl)-1-(toluene-4-sulfonyl)-pyrrolidin-2-yl]-ethyl}-1H-pyrazole], the melting point is 121 °C. Still for that read-out and setting: the figure for `Cn1nnc(CC[C@H]2CC[C@@H](c3ccc(F)cc3)N2S(=O)(=O)c2ccc(Cl)cc2)n1` (racemic) [Example 73, (2RS,5SR)-5-{2-[1-(4-Chloro-benzenesulfonyl)-5-(4-fluoro-phenyl)-pyrrolidin-2-yl]-ethyl}-2-methyl-2H-tetrazole] is 122 °C. In turn, `Cc1ccc(S(=O)(=O)N2[C@H](CCCc3nc(C)no3)CC[C@@H]2c2ccc(F)cc2)cc1` (racemic) [Example 71, (2RS,5RS)-5-{3-[5-(4-Fluoro-phenyl)-1-(toluene-4-sulfonyl)-pyrrolidin-2-yl]-propyl}-3-methyl-[1,2,4]oxadiazole] gave a melting point of 91 °C.

`Cc1ccc(S(=O)(=O)N2[C@@H](c3ncn(C)n3)CC[C@H]2c2ccc(F)cc2)cc1` (racemic) [Example 26, (2RS,5SR)-3-[5-(4-Fluoro-phenyl)-1-(toluene-4-sulfonyl)-pyrrolidin-2-yl]-1-methyl-1H-[1,2,4]triazole] came in with a melting point of 160 °C. Same read-out and setting: the figure for `Cc1ccc(S(=O)(=O)N2[C@@H](CCC#N)CC[C@H]2c2ccc(F)cc2)cc1` (racemic) [Example 31, (2RS,5SR)-3-[5-(4-Fluoro-phenyl)-1-(toluene-4-sulfonyl)-pyrrolidin-2-yl]-propionitrile] is 86 °C. The molecule `Cc1ccc(S(=O)(=O)N2[C@@H](c3nc(C)no3)CC[C@H]2c2ccc(F)cc2)cc1` (racemic) [Example 25, (2RS,5SR)-5-[5-(4-Fluoro-phenyl)-1-(toluene-4-sulfonyl)-pyrrolidin-2-yl]-3-methyl-[1,2,4]oxadiazole] gave a melting point of 128 °C. On the same count and under the same terms, to `CC(=O)NC[C@H]1CC[C@@H](c2ccc(F)cc2)N1S(=O)(=O)c1ccc(C)cc1` (racemic) [Example 9, (2RS,5SR)-N-[5-(4-Fluoro-phenyl)-1-(toluene-4-sulfonyl)-pyrrolidin-2-yl-methyl]-acetamide] belongs 117 °C; to `Cc1ccc(S(=O)(=O)N2[C@@H](C(=N)NO)CC[C@H]2c2ccc(F)cc2)cc1` (racemic) [Example 7, (2RS,5SR)-5-(4-Fluoro-phenyl)-N-hydroxy-1-(toluene-4-sulfonyl)-pyrrolidine-2-carboxamidine], 217 °C.

Broadly, the melting point is the temperature of the solid-liquid transition. Usually EC50 stands for the concentration giving half of the maximal effect.

The values are drawn from patent US6995182B2, “1-sulfonyl pyrrolidine derivatives” (Hoffmann-La Roche Inc., priority 2000, dated 2006).
